Data taken from article PMC5062570 (Nature Communications, 2016).
Entries after “also recorded” stand apart in the source; their conditions may differ. Like-named read-outs stand apart in the source and are kept apart here.

Legend:
[1] = Plasma exposure (average unbound plasma concentration) in rats; format: in vivo, rat; settings: rat; for concentration at 7 days: Wistar Han, oral; for concentration at 7 days / concentration at 29 days: average unbound plasma concentration, read-out: Avg Cp,u parent; for concentration at 29 days / Avg Cp,u metabolite: 14 days; for Avg Cp,u metabolite: metabolite of the dosed compound
Experimental: (§1) Wistar Han rats (obtained from Charles River, 125–300 g, 6–9 weeks old at study start, see Supplementary Table 7 for number of males and females) received daily oral dosing of test compounds or vehicle at the indicated concentrations for 7–29 days as indicated. The doses were prepared in a solution of 0.5% methylcellulose and 0.2% polysorbate 80, or 0.5% methylcellulose and hydroxypropyl methylcellulose acetate succinate (high fine grade) and delivered in a volume of 10 ml kg^−1 per day. Blood samples for bioanalytical analysis were collected in K2EDTA tubes via jugular vessel. Plasma was isolated after centrifugation and stored at −20 °C prior to analysis. Animals were given an additional dose the day after the end of the study (days 8, 15 or 30 for 7, 14 and 29 day studies, respectively) then killed by gas anaesthesia (isoflurane) followed by exsanguination ∼3 h after this final dose.
Plasma samples were analysed after protein precipitation by treating 20 μl of sample matrix with 200 μl of acetonitrile containing internal standard. All samples were centrifuged at 3,000 r.p.m. for 5 min. Then 100 μl of supernatant was transferred to a clean plate and evaporated to dryness under N2. Samples were reconstituted in 200 μl of 80:20 (v:v) acetonitrile:water. Samples were analysed on Waters Acquity UPLC connected to AB Sciex API5500 QTrap MS/MS.
Plasma protein binding was determined in the Rapid Equilibrium Device (RED, Thermo Scientific). Frozen plasma was warmed to 37 °C and adjusted to pH 7.4. The plasma was spiked with compound to a final concentration of 2 μM. Aliquots of spiked plasma were added to the donor (red) side, followed by addition of buffer to the receiver (white) side. The RED device was covered with a gas-permeable membrane and agitated within a humidified CO2 incubator (5% CO2, 75% relative humidity). Plasma (15 μl) and buffer (45 μl) were sampled from each insert and were matrix-matched with appropriate blank matrix (plasma with 45 μl buffer and buffer with 15 μl of plasma). Samples were protein-precipitated with acetonitrile containing internal standard, and the resulting supernatant was analysed by LC-MS/MS.

[2] = tested on: retinal pigment epithelium (RPE); parameters: method as in PMID 22090477, PMID 25361751; settings: cited from earlier work
[3] = tested on: retinal pigment epithelium (RPE); test: Exploratory toxicology, ocular toxicity by retinal histology in rats; format: in vivo; settings: rat
Experimental: as §1

BACE1 [4] = biological target: T1, BACE1 (Homo sapiens, UniProt P56817); test: BACE1 biochemical cellular assay (sAPPβ ELISA in H4 cells overexpressing APP695); format: cell-based; parameters: endogenous in cells; host or cells: H4 human neuroglioma cells overexpressing human APP695; settings: for BACE1 potency increase in live cells: BACE1 enzyme IC50 versus BACE1 cellular IC50
Experimental: Cellular inhibition of BACE1 was determined by measuring sAPPβ, the primary cleavage product of BACE-1, in H4 human neuroglioma cells overexpressing the wild-type human APP695. […] The colorimetric reaction was read by an EnVision plate reader (PerkinElmer).
Target sequence in this assay (P56817 46-501): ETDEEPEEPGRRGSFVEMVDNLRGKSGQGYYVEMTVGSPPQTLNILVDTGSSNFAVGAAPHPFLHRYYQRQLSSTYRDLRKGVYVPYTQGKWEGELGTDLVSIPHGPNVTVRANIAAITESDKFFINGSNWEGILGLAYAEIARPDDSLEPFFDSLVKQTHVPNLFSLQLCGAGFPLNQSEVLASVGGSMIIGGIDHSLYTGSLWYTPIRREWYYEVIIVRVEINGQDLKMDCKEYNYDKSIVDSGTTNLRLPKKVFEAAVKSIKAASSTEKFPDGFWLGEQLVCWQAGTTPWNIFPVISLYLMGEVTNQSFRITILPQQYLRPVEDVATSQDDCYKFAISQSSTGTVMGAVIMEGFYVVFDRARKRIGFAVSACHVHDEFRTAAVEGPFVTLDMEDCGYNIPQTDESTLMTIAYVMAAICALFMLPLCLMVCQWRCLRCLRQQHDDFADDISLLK

CatD [5] = biological target: T2, CatD (Homo sapiens, UniProt P07339); test: CatD cellular assay (competition of PF-7802 photolabelling in live ARPE-19 cells); format: cell-based; parameters: host or cells: ARPE-19; settings: for CatD potency increase in live cells: CatD enzyme IC50 versus CatD cellular IC50
Experimental: ARPE-19 cells were plated at a density of 1.2 × 10^6 cells per well in six-well dishes 12–24 h before probe labelling. Culture media was removed completely and replaced with 1 ml of the appropriate serum-free media (no supplements) per well. Cells were then pretreated with test compounds at the indicated concentrations for 30 min (0.5% DMSO, 37 °C, 5% CO2). […] Ultraviolet irradiation was performed without culture plate lids for efficient irradiation, and samples were slowly rotated to prevent evaporation. After ultraviolet irradiation, cells were washed twice with Dulbecco's phosphate-buffered saline (DPBS), scraped into DPBS, centrifuged and stored as pellets at −80 °C.
Cells were lysed with sonication on ice in 70 μl DPBS and protein concentrations were determined using a BCA assay (Pierce). Total protein concentrations were then normalized to 1 mg ml^−1 in 50 μl total volume before addition of 5.5 μl click chemistry mix (1 : 3 : 1 : 0.5 volume of 50 mM CuSO4 (Sigma) in H2O : 1.7 mM TBTA (Sigma) in 4:1 t-BuOH:DMSO : 50 mM TCEP (Hampton Research) in dPBS : 10 mM TAMRA-azide (Lumiprobe) in DMSO - mixed immediately before use. Reagent solutions can be premade and stored at 4 °C except for TCEP, which should be made immediately before use). […] All fluorescence gels are presented in greyscale.
Target sequence in this assay (P07339 169-412 limits assumed): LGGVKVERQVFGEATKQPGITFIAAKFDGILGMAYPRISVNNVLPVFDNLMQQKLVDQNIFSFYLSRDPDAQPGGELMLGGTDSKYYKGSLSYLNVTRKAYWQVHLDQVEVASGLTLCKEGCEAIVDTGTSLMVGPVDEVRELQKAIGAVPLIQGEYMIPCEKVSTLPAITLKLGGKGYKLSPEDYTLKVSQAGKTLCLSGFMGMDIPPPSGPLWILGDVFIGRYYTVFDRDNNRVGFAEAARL
Target sequence in this assay (P07339 65-162 limits assumed): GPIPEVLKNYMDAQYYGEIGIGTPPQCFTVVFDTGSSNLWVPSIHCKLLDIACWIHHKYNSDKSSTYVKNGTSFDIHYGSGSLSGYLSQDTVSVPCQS

[6] = biological target: T3, ~30 kDa band (CatD heavy chain) in ARPE-19 cells (Homo sapiens, UniProt P07339); test: Live cell PF-7802 labelling, in-gel fluorescence analysis; format: cell-based; settings: pretreatment 2 µM inhibitor, PF-7802 100 nM
T3 construct: host or cells: ARPE-19
T3 sequence (P07339 169-412 limits assumed): as the sequence (P07339 169-412 limits assumed) above
T3 sequence (P07339 65-162 limits assumed): as the sequence (P07339 65-162 limits assumed) above
Experimental: Cells were lysed with sonication on ice in 70 μl DPBS and protein concentrations were determined using a BCA assay (Pierce). […] Gels were fixed in 50% MeOH/7% AcOH for 15 min, then rinsed with 40% MeOH for at least 20 min before in-gel fluorescence scanning (Typhoon Trio, excitation 532 nm, emission 580 nm).

[7] = pKa determination by multiplexed capillary electrophoresis; format: physicochemical; settings: aqueous buffers
Experimental: All pKa values were determined at Analiza, Inc. by multiplexed capillary electrophoresis (mCE) using 96-capillary array electrophoresis instrument to measure the effective mobility (migration time of the compound in relation to neutral marker, DMSO) with ultraviolet detection. The pKa values were obtained from the ionization curves by plotting the compound effective mobility (24 points across pH range 1.7–11.2) versus pH. All pKa results were determined using aqueous buffers with method average absolute error 0.12.

BACE1 [8] = biological target: T1, BACE1; test: BACE1 purified enzyme fluorescence polarization assay; format: biochemical; parameters: His (C); made in house; host or cells: CHO-K1
Experimental: (§2) Purified enzyme inhibition of BACE1, BACE2, CatD and CatE was determined using fluorescence polarization (FP) assays. Briefly, purified enzymes were treated with test compounds (1% DMSO, 37 °C) in the presence of synthetic peptide substrates (150 nM) in 30 μl total volume of NaOAc buffer (100 mM, pH 4.5, 0.0001% Tween-20) in a 384-well plate. After incubation, reactions were stopped and substrate captured by the addition of 1.5 μM streptavidin, and FP measured with an EnVision plate reader (PerkinElmer, excitation 485 nm, emission 530 nm). […] BACE2 activity was assessed with 0.5 nM recombinant BACE2 (R&D Systems 4097-AS) and the same synthetic substrate used for BACE1, with a 1 h incubation time. […] CatE activity was assessed with 1.0 nM recombinant CatE (Creative BioMart CTSE-255H) and the same synthetic substrate used for CatD, with a 1.5 h incubation time.
Target sequence in this assay (P56817 46-457): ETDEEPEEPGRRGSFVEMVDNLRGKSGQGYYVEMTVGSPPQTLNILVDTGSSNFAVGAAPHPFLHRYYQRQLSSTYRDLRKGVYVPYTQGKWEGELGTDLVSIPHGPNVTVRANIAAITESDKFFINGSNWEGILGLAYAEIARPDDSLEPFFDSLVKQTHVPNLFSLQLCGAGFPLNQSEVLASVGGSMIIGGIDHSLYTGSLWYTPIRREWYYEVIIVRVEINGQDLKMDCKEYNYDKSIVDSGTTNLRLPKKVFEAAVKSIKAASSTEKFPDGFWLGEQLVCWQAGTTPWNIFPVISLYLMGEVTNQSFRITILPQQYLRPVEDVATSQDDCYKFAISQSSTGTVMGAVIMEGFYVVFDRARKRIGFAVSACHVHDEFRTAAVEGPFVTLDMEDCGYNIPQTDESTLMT

CatD [9] = biological target: T2, CatD; test: CatD purified enzyme fluorescence polarization assay; format: biochemical; parameters: final maturation into a non-covalently associated heavy chain and light chain; purchased Sigma C8696; host or cells: human liver
Experimental: as §2
Target sequence in this assay (P07339 65-162 limits assumed): as the sequence (P07339 65-162 limits assumed) above
Target sequence in this assay (P07339 169-412 limits assumed): as the sequence (P07339 169-412 limits assumed) above

BACE2 = biological target: T4, BACE2 (Homo sapiens, UniProt Q9Y5Z0); test: BACE2 purified enzyme fluorescence polarization assay; format: biochemical
T4 construct: purchased R&D Systems 4097-AS
T4 sequence (Q9Y5Z0 63-518): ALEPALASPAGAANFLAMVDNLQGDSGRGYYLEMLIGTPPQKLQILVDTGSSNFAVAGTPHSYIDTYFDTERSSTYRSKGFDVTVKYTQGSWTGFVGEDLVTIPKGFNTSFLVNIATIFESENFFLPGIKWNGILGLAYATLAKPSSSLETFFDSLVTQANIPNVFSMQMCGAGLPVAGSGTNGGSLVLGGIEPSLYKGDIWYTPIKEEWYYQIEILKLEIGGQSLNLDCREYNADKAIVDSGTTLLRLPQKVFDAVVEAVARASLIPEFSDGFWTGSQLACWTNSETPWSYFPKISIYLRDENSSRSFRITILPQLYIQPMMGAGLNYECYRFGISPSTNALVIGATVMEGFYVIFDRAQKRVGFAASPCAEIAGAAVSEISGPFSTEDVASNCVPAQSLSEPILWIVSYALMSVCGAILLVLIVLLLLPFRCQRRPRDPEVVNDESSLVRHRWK
Experimental: as §2

[10] = In vivo metabolism of BACE1 inhibitors in rats; parameters: species or system rat
[11] = tested on: CatD protein level in ARPE-19 cells; test: Chronic ARPE-19 inhibitor treatment and CatD ELISA; format: cell-based, human; settings: 300 pM-10 μM, 7 days
Experimental: ARPE-19 cells were plated in 96-well plates at a density of 2 × 10^4 cells per well. After 12–24 h, media was removed and replaced with media containing test compounds at the indicated concentration. After 7 days of compound incubation (no media changes or additional test compound treatments), conditioned media was collected for a cytotoxicity assay, and attached cells were washed once with DPBS and then lysed on ice with gentle pipetting followed by a 20 min extraction in 50 μl in ice-cold RIPA buffer (50 mM Tris, pH 7.4, 150 mM NaCl, 1 mM EDTA, 1% NP40, 1% Na deoxycholate, 0.1% SDS) supplemented with 1 mM PMSF (Sigma) and EDTA-free protease inhibitor cocktail tablets (Roche). Cytotoxicity was determined from conditioned media using an LDH assay (Pierce 88954) as per the manufacturer's protocol. CatD protein levels were measured by ELISA (EMD Millipore Q1A29) as per the manufacturer's protocol. For both the LDH assay and the ELISA, absorbance was read on an EnVision plate reader (PerkinElmer). Data were normalized to DMSO and plotted in GraphPad Prism.

[12] = 14 days, 110 mg kg-1 once daily

SMILES: C[C@@]1(c2cc(-c3cncnc3)c(F)cc2F)CCSC(N)=N1 [LY2811376, reference compound]
- concentration at 7 days ([1]; 25 mg kg-1 once daily): 741 nM
- concentration at 7 days ([1]; 75 mg kg-1 once daily): 4370 nM
- Ocular toxicity in preclinical animal models [2]: ocular toxicity in preclinical animal models
- Male ocular toxicity incidence (positive or negative animals / total evaluated) ([3]; 7 days, 25 mg kg-1 once daily): 1/4
- Male ocular toxicity outcome ([3]; 7 days, 25 mg kg-1 once daily): Pos
- Male ocular toxicity incidence (positive or negative animals / total evaluated) ([3]; 7 days, 75 mg kg-1 once daily): 4/4
- Male ocular toxicity outcome ([3]; 7 days, 75 mg kg-1 once daily): Pos
- BACE1 potency increase in live cells (BACE1 [4]): 18 x
- CatD potency difference between cell-free enzyme and cellular assays (CatD [5]): 95 fold
- CatD potency increase in live cells (CatD [5]): 95 x
- Competition of PF-7802 labelling of the 30 kDa band [6]: blocked labelling of the 30 kDa band
- pKa ([7]; read-out: pKa): 8.9

SMILES: Cc1coc([C@H]2C[C@H]3[C@@H](CF)SC(N)=N[C@@]3(c3ccc(F)cc3F)CO2)n1 [PF-1283]
- concentration at 29 days ([1]; 45 mg kg-1 once daily): 109 nM
- Avg Cp,u metabolite ([1]; 45 mg kg-1 once daily): 352 nM
- concentration at 29 days ([1]; 110 mg kg-1 once daily): 793 nM
- Avg Cp,u metabolite ([1]; 110 mg kg-1 once daily): 859 nM
- IC50 (BACE1 [8]; purified human enzyme, fluorescence polarization, peptide substrate): 120 nM
- Female ocular toxicity incidence (positive or negative animals / total evaluated) ([3]; 14 days, 45 mg kg-1 once daily): 3/3
- Female ocular toxicity outcome ([3]; 14 days, 45 mg kg-1 once daily): Neg (negative (neg) if there was no ocular abnormality observed)
- Male ocular toxicity incidence (positive or negative animals / total evaluated) ([3]; 14 days, 45 mg kg-1 once daily): 3/3
- Male ocular toxicity outcome ([3]; 14 days, 45 mg kg-1 once daily): Neg (negative (neg) if there was no ocular abnormality observed)
- Female ocular toxicity incidence (positive or negative animals / total evaluated) [3, 12]: 1/3
- Female ocular toxicity outcome [3, 12]: Pos
- Male ocular toxicity incidence (positive or negative animals / total evaluated) [3, 12]: 3/3
- Male ocular toxicity outcome [3, 12]: Neg (negative (neg) if there was no ocular abnormality observed)
- BACE1 potency increase in live cells (BACE1 [4]): 12 x
- IC50 (BACE1 [4]; sAPPβ ELISA, H4 neuroglioma cells with human wild-type APP): 10 nM
- CatD potency increase in live cells (CatD [5]): 54 x
- IC50 (CatD [5]; live ARPE-19 cells, PF-7802 photoprobe 100 nM, 30 min): 240 nM
- IC50 (CatD [9]; purified human enzyme, fluorescence polarization, substrate-based): 13000 nM
- IC50 (BACE2; purified human enzyme, fluorescence polarization): 95 nM
- Stability to oxidative metabolism [10]: significantly more stable to oxidative metabolism; also recorded: significantly less susceptible to oxidative metabolism
- pKa [7]: 7.0

SMILES: CC1(C#Cc2cnc3c(c2)[C@]2(COC(N)=N2)c2cc(-c4cccnc4F)ccc2O3)COC1 [AMG-8718, (S)-7-(2-Fluoropyridin-3-yl)-3-((3-methyloxetan-3-yl)ethynyl)-5′H-spiro[chromeno[2,3-b]pyridine-5,4′-oxazol]-2′-amine]
- Ocular toxicity in preclinical animal models [2]: ocular toxicity in preclinical animal models

SMILES: CNC1CCN(C(=O)C[C@@H](Cc2ccccc2)C(=O)N[C@@H](CSC)C(=O)N[C@@H](CC2CCCCC2)[C@@H](O)C(=O)OC(C)C)CC1 [CP-108671, reference compound]
- BACE1 activity (BACE1 [8]): no BACE1 activity
- Inhibition of purified CatD (CatD [9]; purified CatD biochemical substrate assay): potent; also recorded: nanomolar potency
- BACE2 activity (BACE2): no activity
- Competition of PF-7802 labelling of the 30 kDa band [6]: blocked labelling of the 30 kDa band
- CatD protein accumulation (ELISA) [11]: could be reproduced
